Read-outs that look alike come from different tables or passages of the source.
How the values were obtained:
[1] = in vitro; details: African green monkey
[2] = tested on: MPXV strain MOH-NRC-0002/2022, clade II lineage A.2.1; experiment: microbe, parasite or virus in culture; details: Monkeypox virus
[3] = tested on: MPXV strain MOH-NRC-0002/2022, clade II lineage A.2.1; experiment: in vitro; details: African green monkey, SI (selectivity safety index = CC50/IC50)
[4] = tested on: MPXV strain MOH-NRC-0002/2022, clade II lineage A.2.1
[5] = tested on: Zr-599 and Liberia strains of MPXV; details: cited from earlier work
[6] = tested on: Vero-E6 cells
[7] = tested on: clade I or clade II MPXV infection; details: human, in vivo; cited from earlier work
[8] = tested on: MPXV lineage responsible for the 2022 outbreak; details: in vivo; cited from earlier work

Work on Nc1nc(NC2CC2)c2ncn([C@H]3C=C[C@@H](CO)C3)c2n1 [Abacavir] yielded a CC50 [1] of 328 µM, an IC50 ([2]; Vero C1008, 72 h) of 60.1 µM and a selectivity ratio [3] of 5.46.
For Nc1nc2c(ncn2COCCO)c(=O)[nH]1 [Acyclovir], the CC50 [1] was 332 µM.
With NC12CC3CC(CC(C3)C1)C2 [Amantadine] the CC50 [1] was 570 µM, the “SI (selectivity safety index = CC50/IC50)” value ([4]; African green monkey) was 15.22 and the IC50 ([2]; Vero C1008, 72 h) was 37.5 µM. For the same molecule, the selectivity ratio [3] was 15.2.
With CCN(CC)CCCC(C)Nc1ccnc2cc(Cl)ccc12 (stereo not shown) [Chloroquine] the CC50 [1] was 253 µM, the IC50 ([2]; Vero C1008, 72 h) was 102 µM and the selectivity ratio [3] was 2.47.
Work on COC(=O)N[C@H](C(=O)N1CCC[C@H]1c1nc(-c2ccc(-c3ccc(-c4c[nH]c([C@@H]5CCCN5C(=O)[C@@H](NC(=O)OC)C(C)C)n4)cc3)cc2)c[nH]1)C(C)C [Daclatasvir] yielded a CC50 [1] of 386 µM, an IC50 ([2]; Vero C1008, 72 h) of 194 µM and a selectivity ratio [3] of 1.99.
For C[C@@H]1CCO[C@H]2Cn3cc(C(=O)NCc4ccc(F)cc4F)c(=O)c(O)c3C(=O)N12 [Dolutegravir], the CC50 [1] was 160 µM, the “antiviral activity against MPXV (in words)” value (“antiviral activity” for short) [4] was “moderate antiviral activity” and the IC50 ([2]; Vero C1008, 72 h) was 20.5 µM. It also gave a selectivity ratio [3] of 7.82.
In the case of C=C1[C@H](CO)[C@@H](O)C[C@@H]1n1cnc2c(=O)[nH]c(N)nc21 [Entecavir], the CC50 [1] is reported as 336 µM, the “antiviral activity” value [4] is reported as “moderate anti-Mpox activity” and the IC50 ([2]; Vero C1008, 72 h) is reported as 28.1 µM. The selectivity ratio [3] was 12.
With NC(=O)c1nc(F)c[nH]c1=O [Favipiravir] the CC50 [1] was 283 µM, the IC50 ([2]; Vero C1008, 72 h) was 82.8 µM and the selectivity ratio [3] was 3.41.
In the case of CCN(CCO)CCCC(C)Nc1ccnc2cc(Cl)ccc12 (stereo not shown) [Hydroxychloroquine], the CC50 [1] is reported as 296 µM, the “antiviral activity” value [4] is reported as “moderate antiviral activity” and the IC50 ([2]; Vero C1008, 72 h) is reported as 39.9 µM. For the same molecule, the selectivity ratio [3] was 7.41.
Nc1ccn([C@@H]2CS[C@H](CO)O2)c(=O)n1 [Lamivudine] showed a CC50 [1] of 410 µM.
With CC(C)C(=O)OC[C@H]1O[C@@H](n2ccc(NO)nc2=O)[C@H](O)[C@@H]1O [Molnupiravir] the CC50 [1] was 111 µM, the IC50 [4] was 5.73 µM and the “antiviral activity” value [4] was “moderate anti-Mpox activity”. For the same molecule, the IC50 ([2]; Vero C1008, 72 h) was 5.7 µM and the IC50 [5] was about 5.2 µM.
With Cc1ccnc2c1NC(=O)c1cccnc1N2C1CC1 [Nevirapine] the CC50 [1] was 277 µM, the IC50 ([2]; Vero C1008, 72 h) was 106 µM and the selectivity ratio [3] was 2.61.
CCOC(=O)C1=C[C@@H](OC(CC)CC)[C@H](NC(C)=O)[C@@H](N)C1 [Oseltamivir] showed a CC50 [1] of 369 µM, a CC50 ([6]; African green monkey) of 269 µM and an IC50 ([2]; Vero C1008, 72 h) of 58.5 µM. The selectivity ratio [3] was 4.6.
With Nc1nc2c(ncn2CCC(CO)CO)c(=O)[nH]1 [Penciclovir] the CC50 [1] was 280 µM, the IC50 ([2]; Vero C1008) was 70.9 µM and the IC50 ([2]; Vero C1008, 72 h) was 70.8 µM. For the same molecule, the selectivity ratio [3] was 3.95.
With CCC(CC)COC(=O)[C@H](C)N[P@](=O)(OC[C@H]1O[C@@](C#N)(c2ccc3c(N)ncnn23)[C@H](O)[C@@H]1O)Oc1ccccc1 [Remdesivir] the CC50 [1] was 503 µM and the IC50 ([2]; Vero C1008, 72 h) was 10 µM.
NC(=O)c1ncn([C@@H]2O[C@H](CO)[C@@H](O)[C@H]2O)n1 [Ribavirin] showed a CC50 [1] of 262 µM, an IC50 ([2]; Vero C1008, 72 h) of 144 µM and a selectivity ratio [3] of 1.83.
With CC(C)OC(=O)[C@H](C)N[P@](=O)(OC[C@H]1O[C@@H](n2ccc(=O)[nH]c2=O)[C@](C)(F)[C@@H]1O)Oc1ccccc1 [Sofosbuvir] the CC50 [1] was 286 µM, the IC50 ([2]; Vero C1008, 72 h) was 470 µM and the selectivity ratio [3] was 0.61.
In the case of O=C(NN1C(=O)[C@@H]2[C@@H]3C=C[C@@H]([C@H]4C[C@@H]34)[C@@H]2C1=O)c1ccc(C(F)(F)F)cc1 [Tecovirimat], the lesion resolution time [7] is listed as “did not reduce lesion resolution time”, the “safety in randomized clinical trials” value [7] is listed as “safe” and the survival rates [8] is listed as “enhanced the survival rates”.
For CC(C)[C@H](N)C(=O)OCCOCn1cnc2c(=O)[nH]c(N)nc21 [Valaciclovir], the CC50 [1] was 404 µM, the IC50 ([2]; Vero C1008, 72 h) was 74.4 µM and the selectivity ratio [3] was 5.42.
For CC(C)[C@H](N)C(=O)OCC(CO)OCn1cnc2c(=O)nc(N)[nH]c21 (stereo partly shown) [Valganciclovir], the CC50 [1] was 494 µM, the IC50 ([2]; Vero C1008, 72 h) was 92 µM and the selectivity ratio [3] was 5.36.
Molecule COC[C@H]1C[C@@H](c2ncc(-c3ccc4c(c3)COc3cc5c(ccc6nc([C@@H]7CC[C@H](C)N7C(=O)[C@@H](NC(=O)OC)C(C)C)[nH]c65)cc3-4)[nH]2)N(C(=O)[C@H](NC(=O)OC)c2ccccc2)C1 [Velpatasvir] has a CC50 [1] of 316 µM, an IC50 ([2]; Vero C1008, 72 h) of 332 µM and a selectivity ratio [3] of 0.95.
With CC(=O)N[C@H]1[C@H]([C@H](O)[C@H](O)CO)OC(C(=O)O)=C[C@@H]1N=C(N)N [Zanamivir] the CC50 [1] was 359 µM, the IC50 ([2]; Vero C1008, 72 h) was 189 µM and the selectivity ratio [3] was 1.9.
With Cc1cn([C@H]2C[C@H](N=[N+]=[N-])[C@@H](CO)O2)c(=O)[nH]c1=O [Zidovudine] the CC50 [1] was 282 µM, the “antiviral activity” value [4] was “limited activity” and the IC50 ([2]; Vero C1008, 72 h) was 123 µM. The selectivity ratio [3] was 2.29.
For Tenofovir disoproxil, the IC50 [4] was 67.2 µM, the “SI (selectivity safety index = CC50/IC50)” value [4] was 4.50 and the CC50 [6] was 302 µM.

From publication PMC12736150 (Pharmaceuticals, 2025)
